Source: PubChem BioAssay AID248 (DTP/NCI, 2004)
“And” between values parts separate entries of the source, which are not always exact repeats. Equal values may be shown once. Toxic doses and inconclusive results are not listed. No stated cut-off is given here; in the data, active means T/C of 150% or more; inactive means T/C below 125%. Bridge positions count the residues as written; N and C are the ends. Peptide text beside a SMILES is read from it. I, II: the chains in the order shown.

System: L1210 leukemia ip in BDF1 mice, survival T/C
Test: NCI In Vivo Anticancer Drug Screen. Data for tumor model L1210 Leukemia (intraperitoneal) in B6D2F1 (BDF1) mice
Settings: endpoint: mean survival time, higher = longer survival
In short: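 In this screen, tumor-bearing mice given compound are compared to those given vehicle, and their survival values are reported as a treated-to-control quotient.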

[1] = dose: 100.0 mg/kg/injection, schedule: Q01DX009 (ip), vehicle: Klucel (hydroxypropylcellulose) (HPC)
[2] = dose: 100.0 mg/kg/injection, schedule: Q04DX002 (ip), vehicle: Klucel (hydroxypropylcellulose) (HPC)
[3] = dose: 200.0 mg/kg/injection, schedule: Q01DX009 (ip), vehicle: Klucel (hydroxypropylcellulose) (HPC)
[4] = dose: 200.0 mg/kg/injection, schedule: Q04DX002 (ip), vehicle: Klucel (hydroxypropylcellulose) (HPC)
[5] = dose: 400.0 mg/kg/injection, schedule: Q04DX002 (ip), vehicle: Klucel (hydroxypropylcellulose) (HPC)
[6] = dose: 100.0 mg/kg/injection, schedule: Q04DX003 (ip), vehicle: saline
[7] = dose: 200.0 mg/kg/injection, schedule: Q04DX003 (ip), vehicle: saline
[8] = dose: 400.0 mg/kg/injection, schedule: Q04DX003 (ip), vehicle: saline
[9] = dose: 100.0 mg/kg/injection, schedule: Q01DX001 (ip), vehicle: saline
[10] = dose: 75.0 mg/kg/injection, schedule: Q01DX001 (ip), vehicle: saline
[11] = dose: 150.0 mg/kg/injection, schedule: Q01DX001 (ip), vehicle: saline
[12] = dose: 100.0 mg/kg/injection, schedule: Q01DX009 (ip), vehicle: saline
[13] = dose: 200.0 mg/kg/injection, schedule: Q01DX009 (ip), vehicle: saline
[14] = dose: 400.0 mg/kg/injection, schedule: Q01DX009 (ip), vehicle: saline
[15] = dose: 100.0 mg/kg/injection, schedule: Q01DX001 (ip), vehicle: Klucel (hydroxypropylcellulose) (HPC)
[16] = dose: 200.0 mg/kg/injection, schedule: Q01DX001 (ip), vehicle: Klucel (hydroxypropylcellulose) (HPC)
[17] = dose: 400.0 mg/kg/injection, schedule: Q01DX001 (ip), vehicle: Klucel (hydroxypropylcellulose) (HPC)

Measured: T/C

O=C(O)c1ccccc1Nc1ccccc1[N+](=O)[O-]
inactive: dose: 100.0 mg/kg/injection, schedule: Q01DX005 (ip), vehicle: Klucel (hydroxypropylcellulose) (HPC) 90 % of control | [1] 87 % of control | [2] 93 % of control | dose: 200.0 mg/kg/injection, schedule: Q01DX005 (ip), vehicle: Klucel (hydroxypropylcellulose) (HPC) 94 % of control | [3] 102 % of control | [4] 100 % of control | dose: 400.0 mg/kg/injection, schedule: Q01DX005 (ip), vehicle: Klucel (hydroxypropylcellulose) (HPC) 105 % of control | dose: 400.0 mg/kg/injection, schedule: Q01DX009 (ip), vehicle: Klucel (hydroxypropylcellulose) (HPC) 94 % of control | [5] 96 % of control

CC(=O)N(CCC#N)CCC#N
inactive: [6] 95 % of control | [7] 96 % of control | [8] 93 % of control

COC1OC(CO)C(N(C)C(C)=O)C1O (centres undefined)
inactive: [9] 94 % of control | dose: 200.0 mg/kg/injection, schedule: Q01DX001 (ip), vehicle: saline 103 % of control | dose: 400.0 mg/kg/injection, schedule: Q01DX001 (ip), vehicle: saline 97 % of control

CCCN1CC(Br)C(=O)NC1=O (centres undefined)
inactive: dose: 100.0 mg/kg/injection, schedule: Q01DX Z (ip), vehicle: methylcellulose (MC) 90 % of control

O=C(CC(O)c1ccccc1)Nc1cccnc1 (centres undefined)
inactive: dose: 100.0 mg/kg/injection, schedule: Q01DX001 (ip), vehicle: other 96 % of control

CC(CC(C#CC(CC(C)CC(C)(C)C)N(C)C)N(C)C)CC(C)(C)C (centres undefined)
inactive: [1] 96 % of control | [2] 111 % of control | [3] 93 % of control | [4] 93 % of control | [5] 90 % of control

CC(=O)OCCC/C(=C\c1c2ccccc2cc2ccccc12)[N+](=O)[O-]
inactive: dose: 100.0 mg/kg/injection, schedule: Q01DX001 (ip), vehicle: carboxymethylcellulose (CMC) 94 % of control | dose: 200.0 mg/kg/injection, schedule: Q01DX001 (ip), vehicle: carboxymethylcellulose (CMC) 94 % of control | dose: 400.0 mg/kg/injection, schedule: Q01DX001 (ip), vehicle: carboxymethylcellulose (CMC) 96 % of control

O=C(Oc1ccc(S(=O)(=O)F)cc1F)c1ccccc1Cl
inactive: [2] 95 % of control | [4] 89 % of control

CN1CN(c2ccccc2)C2(CCNCC2)C1=O
inactive: [10] 102 % of control | [11] 96 % of control

NC(N)=N/N=C(/c1ccccc1)c1ccc(O)cc1O
inactive: dose: 15.0 mg/kg/injection, schedule: Q01DX Z (ip), vehicle: saline 101 % of control | dose: 30.0 mg/kg/injection, schedule: Q01DX Z (ip), vehicle: saline 92 % of control | dose: 60.0 mg/kg/injection, schedule: Q01DX Z (ip), vehicle: saline 94 % of control | dose: 120.0 mg/kg/injection, schedule: Q01DX Z (ip), vehicle: saline 92 % of control | dose: 120.0 mg/kg/injection, schedule: Q01DX Z (oral), vehicle: saline 101 % of control | dose: 240.0 mg/kg/injection, schedule: Q01DX Z (ip), vehicle: saline 108 % of control | dose: 240.0 mg/kg/injection, schedule: Q01DX Z (oral), vehicle: saline 102 % of control | dose: 480.0 mg/kg/injection, schedule: Q01DX Z (oral), vehicle: saline 101 % of control | dose: 960.0 mg/kg/injection, schedule: Q01DX Z (oral), vehicle: saline 98 % of control

COC1=C(Cl)C(OC)(OC)C(Cl)=C1Cl
inactive: dose: 75.0 mg/kg/injection, schedule: Q01DX001 (ip), vehicle: carboxymethylcellulose (CMC) 107 % of control | dose: 150.0 mg/kg/injection, schedule: Q01DX001 (ip), vehicle: carboxymethylcellulose (CMC) 102 % of control | dose: 300.0 mg/kg/injection, schedule: Q01DX001 (ip), vehicle: carboxymethylcellulose (CMC) 104 % of control

Cc1cnc2c(=O)[nH]c(=O)[nH]c2n1
inactive: dose: 12.5 mg/kg/injection, schedule: Q01DX009 (ip), vehicle: Klucel (hydroxypropylcellulose) (HPC) 102 % of control | dose: 25.0 mg/kg/injection, schedule: Q01DX009 (ip), vehicle: Klucel (hydroxypropylcellulose) (HPC) 98 % of control | dose: 50.0 mg/kg/injection, schedule: Q01DX009 (ip), vehicle: Klucel (hydroxypropylcellulose) (HPC) 96 % of control | dose: 100.0 mg/kg/injection, schedule: Q04DX003 (ip), vehicle: Klucel (hydroxypropylcellulose) (HPC) 96 % of control | dose: 200.0 mg/kg/injection, schedule: Q04DX003 (ip), vehicle: Klucel (hydroxypropylcellulose) (HPC) 92 % of control | dose: 400.0 mg/kg/injection, schedule: Q04DX003 (ip), vehicle: Klucel (hydroxypropylcellulose) (HPC) 92 % of control

CC(=O)Nc1ccccc1N
inactive: [12] 117 % of control | [2] 92 % of control | [13] 113 % of control | [4] 113 % of control | dose: 265.0 mg/kg/injection, schedule: Q01DX009 (ip), vehicle: saline 114 % of control | [5] 103 % of control

O=C(O)c1ccccc1/C=C/c1ccc([N+](=O)[O-])cc1
inactive: dose: 100.0 mg/kg/injection, schedule: Q01DX001 (ip), vehicle: saline with Tween-80 97 % of control

CCOC(=O)CNc1cccc(C)c1
inactive: [2] 100 % of control | [4] 110 % of control | [5] 107 % of control

CCOP(=O)(NN(C)C)OCC
inactive: dose: 12.5 mg/kg/injection, schedule: Q01DX009 (ip), vehicle: saline 107 % of control | dose: 12.5 mg/kg/injection, schedule: Q04DX003 (ip), vehicle: saline 96 % of control | dose: 25.0 mg/kg/injection, schedule: Q01DX009 (ip), vehicle: saline 104 % of control | dose: 25.0 mg/kg/injection, schedule: Q04DX003 (ip), vehicle: saline 104 % of control | dose: 50.0 mg/kg/injection, schedule: Q01DX009 (ip), vehicle: saline 102 % of control | dose: 50.0 mg/kg/injection, schedule: Q04DX003 (ip), vehicle: saline 107 % of control | [12] 102 % of control | [6] 101 % of control | [13] 95 % of control | [7] 106 % of control | [14] 112 % of control | [8] 96 % of control

c1cc2c(cc1CCc1ccc3c(c1)OCO3)OCO2
inactive: [2] 96 % of control | [4] 86 % of control | [5] 104 % of control

O=[N+]([O-])c1cccc(NSNc2cccc([N+](=O)[O-])c2)c1
inactive: dose: 50.0 mg/kg/injection, schedule: Q01DX001 (ip), vehicle: Klucel (hydroxypropylcellulose) (HPC) 100 % of control | [15] 98 % of control | [16] 87 % of control

NNC(=O)COc1ccccc1
inactive: [9] 106 % of control

O=C(c1ccc(F)cc1)C(F)(F)F
inactive: [15] 95 % of control and 101 % of control | dose: 100.0 mg/kg/injection, schedule: Q04DX003 (ip), vehicle: other 104 % of control | [16] 103 % of control | dose: 200.0 mg/kg/injection, schedule: Q04DX003 (ip), vehicle: other 108 % of control | [17] 95 % of control and 101 % of control | dose: 400.0 mg/kg/injection, schedule: Q04DX003 (ip), vehicle: other 94 % of control

CCOC(OCC)OC(C)=O
inactive: [12] 107 % of control | [6] 110 % of control | [13] 98 % of control | [7] 97 % of control | [14] 90 % of control | [8] 103 % of control

NCC(=O)NC(CSSCC(NC(=O)CN)C(=O)O)C(=O)O (stereo not drawn) (I: H-Gly-Cys-OH / II: H-Gly-Cys-OH; disulfide I:2-II:2; configuration not given here)
inactive: [10] 99 % of control | [11] 102 % of control | dose: 300.0 mg/kg/injection, schedule: Q01DX001 (ip), vehicle: saline 100 % of control

CCCCCCCCCCCCCCCCSCCCCCCCCCCCSCCCCCCCCCCCCCCCC
inactive: [15] 89 % of control | [16] 94 % of control | [17] 102 % of control
